{
  "source": "patent US20230390276A1",
  "about": "“TREATMENT OF AUTOIMMUNE DISEASES WITH A DIHYDROOROTATE HEHYDROGENASE (DHODH) INHIBITOR” (Aslan Pharmaceuticals Pte. Ltd., priority 2020, published 2023)",
  "key": {"EAE Lewis rat model [1]": {"system": "EAE Lewis rat model", "assay": "EAE Lewis rat model, clinical score AUC (Example 2)", "assay_type": "in vivo, Male Lewis rats", "protocol": "For the induction of EAE, guinea pig myelin basic protein (MBP) (Sigma, M2295) suspended in 0.9% saline solution at a concentration of 2 mg/ml was used. The solution was emulsified with an equal volume of Freund's complete adjuvant (Sigma, F5881) containing 4 mg/ml of heat-inactivated Mycobacterium tuberculosis H37Ra (Difeo Laboratories, Ref. 231141). Male Lewis rats were immunized with 0.1 ml of emulsion by subcutaneous injection into the right and left hind footpads with the emulsion containing MBP at 100 μg/rat.\nIndividual animals were examined daily for clinical signs of neurological deficits scored on a 0 to 5 scale, as follows:\nClinical signs of the disease were observed on day 8-9 after induction.\nAs disease progressed, animals with a score of 4 were sacrificed if disability indicated little chance of recovery, in accordance with animal welfare standards. Mortality due to sacrifice or spontaneous EAE-related death was recorded as a 5 on the given day. This death score continued to be included in the clinical assessment, but no body weight measurements could be carried forward.\nLAS 186323 (ASLAN003), positive control T and positive control F were freshly prepared every day and suspended in 0.5% Methylcellulose and 0.1% Tween 80 in water, at the specified doses and administered by oral gavage in a volume of 10 ml/kg.\nEvaluation of disability was performed on a daily basis and a clinical score given to each animal, as described. The area under the curve (AUC) of the clinical score was generated for each animal from the data recorded along the experiment. The percentage of inhibition of the AUC was calculated for every animal versus the mean of the AUC of the vehicle group. The mean percentage of inhibition per treatment and dose was calculated."}, "[2]": {"assay": "Haematological cell count in EAE rats", "assay_type": "in vivo, Male Lewis rats", "conditions": "for number of neutrophils: 24 hours after last administration, no statistically significant difference versus vehicle", "protocol": "At the end of the assay, 24 h after last administration, blood samples from the retro-orbital plexus were obtained from all animals under light anaesthesia. Samples were used to determine complete blood cell count (XT-2000i/XT-1800i, Sysmex Corporation). Absolute values were reported for all cell types."}, "EAE Lewis rat model [3]": {"system": "EAE Lewis rat model", "assay": "Histology of the CNS in EAE rats", "assay_type": "in vivo, Male Lewis rats", "conditions": "highest doses tested; compared to vehicle-treated animals", "protocol": "At the end of the experiment, animals were killed by exsanguination and necropsies were performed in a blind manner. The spinal cords (CNS; spinal cord, medulla oblonga, cerebellum) of EAE animals were obtained, fixed in 4% formalin in PBS, and embedded in paraffin. Six μm-thickness sections were prepared and then stained with hematoxylin and eosin. The histological score was evaluated as follows: • 0: no lesions; • 1: solitary lesions with cell infiltrates of low cellular density in the entire section; • 2: a few lesions with moderate cell infiltration in each of a few fields; • 3: many lesions in almost all fields with massive cell infiltration and accompanying edema (Kataoka, 2005)."}, "[4]": {"assay": "WBC and platelet counts in AIA model", "assay_type": "in vivo, Male Wistar rats", "conditions": "arthritic rats, 24 hrs after last administration", "protocol": "Rats were administered the CFA suspension every day in the morning for 10 consecutive days. Body weight was measured every day and paw volumes every other day. On day 11 post-treatment (24 hrs after last administration), the rats were anesthetised, blood samples were collected from their retroorbital plexus to determine cell counts, and then sacrificed. Hind paws were excised to perform X-ray analysis and a score of radiological damage was performed by a scientist unaware in a blind manner."}, "[5]": {"system": "rheumatoid arthritis (RA) Adjuvant-Induced Arthritis (AIA) model", "assay": "Adjuvant-induced arthritis (AIA) model, paw inflammation AUC", "assay_type": "in vivo, Male Wistar rats", "conditions": "for % Inhibition of the AUC (mean ± SEM): vs mean of vehicle"}, "[6]": {"system": "rheumatoid arthritis (RA) Adjuvant-Induced Arthritis (AIA) model", "assay": "X-ray (radiological) score of paws in AIA model", "assay_type": "in vivo, Male Wistar rats", "conditions": "3 mg/kg; 2 to 3 independent experiments", "protocol": "Rats were administered the CFA suspension every day in the morning for 10 consecutive days. Body weight was measured every day and paw volumes every other day. On day 11 post-treatment (24 hrs after last administration), the rats were anesthetised, blood samples were collected from their retroorbital plexus to determine cell counts, and then sacrificed. Hind paws were excised to perform X-ray analysis and a score of radiological damage was performed by a scientist unaware in a blind manner. The radiological score is a composite of 5 different parameters evaluated from the X-ray images of every individual paw. The 5 parameters are: bone demineralisation, periostitis, narrowing of the joint space, cystic degeneration, and inflammation of the soft tissues. For each parameter, a value of 0-4 was assigned, which is proportional to the severity observed. The sum of the scores of the 5 parameters provides the radiological score for each animal. The effect of a treatment on the inhibition of the radiological score was measured by calculating the % inhibition of the radiological score of every animal belonging to a treatment group vs the mean of the vehicle treated group. In the case where several experiments were conducted, the values provided are the mean of the individual experiments and the SEM."}, "[7]": {"system": "multiple sclerosis experimental autoimmune encephalomyelitis (EAE) model", "assay": "EAE model of multiple sclerosis, clinical score (Example 1)", "assay_type": "in vivo", "conditions": "oral 1, 3, 10 or 15 mg/kg per day from Day 8 after disease induction", "text": "Experimental autoimmune encephalomyelitis (EAE) is a well-studied animal model of demyelinating diseases, such as human multiple sclerosis (MS). EAE is induced by injecting susceptible animals with purified myelin components, central nervous system (CNS) extract, or synthesized specific peptides emulsified in an adjuvant. The peptides are for example derived from myelin basic protein (MBP), myelin oligodendrocyte glycoprotein (MOG) or proteolipid protein (PLP). To investigate the effect of ASLAN003 on multiple sclerosis, ASLAN003 was administered orally to the EAE model at doses of 1 mg/kg, 3 mg/kg, 10 mg/kg or 15 mg/kg per day, starting from Day 8 after disease induction. A vehicle control was included."}, "DSS induced IBD model": {"system": "DSS induced IBD model", "assay": "Dextran sulfate sodium (DSS) induced inflammatory bowel disease (IBD) mouse model", "assay_type": "in vivo, Male C57BL/6 mice", "protocol": "Male C57BL/6 mice aged 6-7 weeks were procured from Shanghai Lingchang Bio Tech Co. Ltd, China. Animals were randomized into groups based on the body weight: • Group 01: Purified water, ad libitum, Day 1-8; Vehicle, 5 mL/kg, P0, QD, Day 0-9, n=6 • Group 02: 3% DSS in water, ad libitum, Day 1-8; Vehicle, 5 mL/kg, P0, QD, Day 0-9, n=8 • Group 03: 3% DSS in water, ad libitum, Day 1-8; positive control V, 20 mg/kg, P0, QD, Day 0-9, n=8 • Group 04: 3% DSS in water, ad libitum, Day 1-8; ASLAN003, low dose, P0, QD, Day 0-9, n=8a • Group 05: 3% DSS in water, ad libitum, Day 1-8; ASLAN003, high dose, P0, QD, Day 0-9, n=8 • Abbreviations: QD=Once daily; PO=Oral gavage. • Study duration: 3 weeks of acclimation phase, and 10 days of treatment phase starting from Day 0 (Day 0-10). • Colitis model induction: To induce acute experimental colitis, mice in Groups 02-05 were provided ad libitum access to 3% DSS in purified water for 7 days (Day 1-7), followed by purified water for 2 days (Day 9-10). The drinking water containing DSS was changed once in two days. Mice in Group 01 was kept on purified water as a control, during Day 1-7. • In-life parameters measured: • Water and food consumption was monitored once daily during Day 0-10. • Body weight was measured once daily during Day 0-10, with twice daily clinical monitoring. • Stool observation as conducted once daily during Day 0-10. A disease activity index (DAI) was determined to quantify induction of colitis. • Intestinal permeability was assessed on Days 0 and 9. • Faeces was collected for lipocalin-2 detection on Days 0, 4, 8 and 10. • Study Termination: The mice were sacrificed on Day 10, and the following was performed on the sacrificed animals: • The entire colon (from caecum to anus) was collected and its length from ileocecal valve to anus was measured. • One photo of the entire colon for each mouse was taken. • The colon was opened along the mesenteric border, rinsed with saline, blotted dry and its weight was measured. • The colon was processed as ‘spiral Swiss Rolls’, fixed in 10% neutral-buffered formalin for 24-48 hours, and embedded in paraffin (one block per mouse) for hematoxylin-eosin (H&E) staining and histopathological evaluation. • The spleen was dissected, its tissue weight measured and recorded, and then discarded."}},
  "data": [
    {"smiles": "COc1cccc(-c2cc(F)c(Nc3ncccc3C(=O)O)c(F)c2)c1", "note": "[ASLAN003, 2-(3,5-difluoro-3′-methoxybiphenyl-4-ylamino) nicotinic acid]", "values": [
      {"measurement": "% AUC inhibition Mean (SEM) of clinical score", "setting": "EAE Lewis rat model [1]; 1 mg/kg oral daily", "value": "41.1 (13.34) %"},
      {"measurement": "% AUC inhibition Mean (SEM) of clinical score", "setting": "EAE Lewis rat model [1]; 3 mg/kg oral daily", "value": "44.4 (10.79) %"},
      {"measurement": "% AUC inhibition Mean (SEM) of clinical score", "setting": "EAE Lewis rat model [1]; 10 mg/kg oral daily", "value": "65.1 (9.02) %"},
      {"measurement": "% AUC inhibition Mean (SEM) of clinical score", "setting": "EAE Lewis rat model [1]; 15 mg/kg oral daily", "value": "84.4 (4.94) %"},
      {"measurement": "ED50 (clinical score AUC inhibition)", "setting": "EAE Lewis rat model [1]; calculated by linear regression", "value": 2.7, "unit": "mg/kg/day"},
      {"measurement": "number of neutrophils", "setting": "[2]; 10 mg/kg", "value": "not at 10 mg/kg"},
      {"measurement": "number of neutrophils", "setting": "[2]; 3 and 15 mg/kg", "value": "reduction in the number of neutrophils"},
      {"measurement": "blood cell count", "setting": "[2]; once a day oral, 1-15 mg/kg", "value": "did not have a significant effect"},
      {"measurement": "CNS histological score (microscopic CNS lesions)", "setting": "EAE Lewis rat model [3]", "value": "profound improvement in the microscopic CNS lesions"},
      {"measurement": "Platelets", "setting": "[4]; 1 mg/kg", "value": "1418 ± 180 ×10^3/μl"},
      {"measurement": "White blood cells", "setting": "[4]; 1 mg/kg", "value": "20.6 ± 0 ×10^3/μl"},
      {"measurement": "Platelets", "setting": "[4]; 3 mg/kg", "value": "1180 ± 45.9 ×10^3/μl"},
      {"measurement": "White blood cells", "setting": "[4]; 3 mg/kg", "value": "16.2 ± 0.86 ×10^3/μl"},
      {"measurement": "AUC of right paw inflammation (mean ± SEM)", "setting": "[5]; 1 mg/kg oral daily, 2 to 5 independent experiments", "value": "9.11 ± 3.14"},
      {"measurement": "% Inhibition of the AUC (mean ± SEM)", "setting": "[5]; 1 mg/kg oral daily", "value": "32.76 ± 22.8", "unit": "%"},
      {"measurement": "% Inhibition of the AUC (mean ± SEM)", "setting": "[5]; 3 mg/kg oral daily", "value": "53.09 ± 2.4", "unit": "%"},
      {"measurement": "% Inhibition of the AUC (mean ± SEM)", "setting": "[5]; 10 mg/kg oral daily", "value": "64.49 ± 4.6", "unit": "%"},
      {"measurement": "ED50", "setting": "[5]; Rattus norvegicus, from 2 to 5 independent experiments, read-out: ED50 (mean % reduction in paw volume)", "value": 4.6, "unit": "mg/kg"},
      {"measurement": "X-ray score (mean ± SEM)", "setting": "[6]", "value": "2.16 ± 0.25"},
      {"measurement": "clinical score compared to the vehicle control", "setting": "[7]", "value": "significantly reduced clinical score"},
      {"measurement": "stool consistency", "setting": "DSS induced IBD model; 75 mg/kg PO QD (group 5), Days 2 to 9", "value": "best overall stool consistency"},
      {"measurement": "spleen weight", "setting": "DSS induced IBD model; 75 mg/kg PO QD (group 5), end of study", "value": "most similar to the control group 1"},
      {"measurement": "Disease Activity Index (DAI)", "setting": "DSS induced IBD model; 75 mg/kg PO QD (group 5), over the 10 days", "value": "lower overall increase in DAI"},
      {"measurement": "bloody stools", "setting": "DSS induced IBD model; 75 mg/kg PO QD (group 5), over the course of the study", "value": "lowest incidence of bloody stools"},
      {"measurement": "colon weight/length", "setting": "DSS induced IBD model; 25 and 75 mg/kg PO QD (groups 4 and 5), end of study, vs Vehicle group 2", "value": "fairly similar"},
      {"measurement": "lipocalin in faeces (intestinal inflammation)", "setting": "DSS induced IBD model; 25 and 75 mg/kg PO QD (groups 4 and 5), vs vehicle treated group 2", "value": "less intestinal inflammation"},
      {"measurement": "loss in body weight", "setting": "DSS induced IBD model; 25 and 75 mg/kg PO QD Day 0-9 (groups 4 and 5), vs DSS induced vehicle group 2", "value": "similar"}
    ]}
  ]
}
